Assay results taken from publication PMC11678373 (Pharmaceutics, 2024).
Values joined by “and” are separate entries in the source; they are usually repeats but may differ in a detail not shown here. Equal values may be shown once. Read-outs that look alike come from different tables or passages of the source.

What was measured:
CYP2C8 = conditions: cited from earlier work
[1] = Pharmacokinetics of REG, M-2 and M-5 in rats after single oral REG with or without OLA; format: in vivo, male Wistar rats
Description: (§1) Healthy, 14-week-old adult male Wistar rats purchased from the Anima Sp. z o. o. SK and ViVARI s.c. (Warszawa, Poland) were used in the study. The animals were housed for one week in a temperature- and humidity-controlled room with a 12-h light/dark cycle and fed a standard diet with free access to fresh water.
(§2) This reduced the number of animals included in the experiment, which is consistent with the 3R concept. The same drugs (same manufacturer, same dose) were administered in the study group IREG+OLA, but from different batches than in the control groups. No other experimental conditions were changed.
(§3) The samples were centrifuged (2880 g, 10 min at 4 °C), and the plasma was stored at −80 °C until analyzed.
A Cortecs UPLC C18 column (2.1 × 50 mm, 1.6 μm) was used in combination with a VanGuard Acquity UPLC BEH C18 pre-column (2.1 × 5 mm, 3/Pk, Waters Corporation). The injection volume was 5 μL, the autosampler temperature was 4 °C, and the column temperature was 40 °C. The composition of mobile phase A was 0.1% aqueous formic acid solution (v/v), and phase B was acetonitrile/methanol and 0.1% aqueous formic acid solution in a ratio of 1:3 (v/v). The total run time was 5 min. The gradient was as follows: 0–0.5 min with 10% B; 0.5–3 min, 95% B; 3–4 min, 95% B; 4–4.1 min, 10% B; 4.1–5 min, 10% B. The flow rate was 0.4 mL/min. Multiple reaction monitoring (MRM) experiments using positive electrospray ionization (ESI) were performed to analyze the samples.
The following settings of the Xevo TQ-S micro mass spectrometer were used: source temperature 150 °C, desolvation temperature 600 °C, nitrogen gas flow 900 L/h, capillary voltage 3.6 kV.
(§4) The values of the pharmacokinetic parameters of OLA, REG, and M-2 and M-5 were determined by non-compartmental analysis with linear interpolation. PKanalix 2023R1 software (Lixoft, Antony, France) was used to calculate the elimination rate constant (kel), the absorption rate constant (ka), the half-life in the elimination phase (t1/2), the area under the concentration–time curve from zero to the last measurable concentration (AUC0–t), the area under the plasma concentration–time curve from zero to infinity (AUC0–∞), the apparent plasma drug clearance (Cl/F), and the apparent volume of distribution (Vd/F). The maximum plasma concentration (Cmax) and the time to reach the Cmax (tmax) were obtained directly from the measured values. All these parameters were presented as arithmetic mean ± standard deviation (SD) and subjected to statistical analysis.

[2] = single oral REG 20 mg/kg b.w. alone (IIREG control, n = 8), mean ± SD, adapted from previous project ref 39, cited from earlier work; for AUC0–t / AUC0–∞: metabolite in plasma
[3] = Long-term stability in plasma (bioanalytical validation); format: physicochemical, rat; conditions: plasma QC samples, −20 °C storage
Description: The concentrations were diluted in five replicates.
Short-term and long-term stability were tested at −20 °C storage conditions and ambient temperature at processing conditions. For the short term, three cycles of freezing and thawing within three days were applied.
All met ICH acceptance criteria.

CYP3A4 = conditions: cited from earlier work
CYP2C9 = conditions: cited from earlier work
CYP2D6 = conditions: cited from earlier work
BCRP = system: BCRP; design: method as in earlier work; conditions: cited from earlier work
[4] = cited from earlier work
[5] = OLA; single oral OLA 100 mg/kg b.w. alone (IIIOLA control, n = 8); mean ± SD; adapted from previous project ref 40; cited from earlier work
CYP3A4/5 = system: CYP3A4/5; design: method as in PMID 28657402, PMID 27684210; conditions: cited from earlier work
P-gp vesicles = system: P-gp vesicles; design: method as in Deng et al. 36; conditions: ref Deng et al. 36; cited from earlier work
[6] = Pharmacokinetics of OLA in rats after single oral OLA with or without REG; format: in vivo, male Wistar rats
Description: as §1, §2, §3
OLA in animal plasma samples was quantified using an Acquity 1-class PLUS ultra-high performance liquid chromatograph coupled to a Xevo TQ-S micro triple quadrupole mass spectrometer (Waters Corporation, 34 Maple Street, Milford, MA, USA). A Cortecs UPLC C18 column (2.1 × 50 mm, 1.6 µm, Waters Corporation, 34 Maple Street, Milford, MA, USA) was used for the chromatographic separation. The column temperature and injection volume were set at 40 °C and 1 µL, respectively. The mobile phase consisted of acetonitrile (eluent A) and 2 mM ammonium acetate in water (eluent B) with 0.1% 98–100% formic acid. The flow rate was kept at 0.3 mL/min. The elution gradient was as follows: 0–3 min, 5% A; 4–5 min, 95% A; 3–5 min, linear from 5% to 95% A; 5–6 min, linear from 95% to 5% A. The mass spectrometer was operated in multiple reaction monitoring mode. Two transitions were monitored for OLA and OLA-d4 as an internal standard (IS): m/z 435.1→367.1 and 435.1→281.0 (qualifier transition) for OLA and m/z 439.1→367.1 and 439.1→281.0 for IS.
as §4

P-gp = system: P-gp; design: method as in earlier work; conditions: cited from earlier work
CYP2C19 = conditions: cited from earlier work
P-glycoprotein = conditions: cited from earlier work
CYP2B6 = conditions: cited from earlier work
CYP3A = system: CYP3A; design: method as in Jin et al. 37; conditions: competitive inhibition; ref Jin et al. 37; cited from earlier work
[7] = design: method as in Jin et al. 37; conditions: ref Jin et al. 37, cited from earlier work; for predicted AUC increase for (S)- and/or (R)-warfarin: via CYP inhibition
[8] = cited from earlier work; remark: listed apart in the source
[9] = co-administration of OLA and metformin in rats; cited from earlier work

In the case of `CNC(=O)c1cc(Oc2ccc(NC(=O)Nc3ccc(Cl)c(C(F)(F)F)c3)c(F)c2)cc[n+]1[O-]` [M-2, REG-N-oxide], the R1 value (CYP2C8) is given as greater than 1.1, the “AUC0–t of metabolite, times higher during combined administration of OLA and REG” value ([1]; IREG+OLA vs. IIREG control) is given as 8.86 fold and the “Cmax of metabolite, times higher during combined administration of OLA and REG” value ([1]; IREG+OLA vs. IIREG control) is given as 7.22 fold. The “AUC0–t” value [2] was 9615.36 ± 2275.41 (23.7) ng × h/mL, the “AUC0–∞” value [2] was 11,469.93 ± 2133.05 (18.6) ng × h/mL and the “stable in plasma (long-term test)” value [3] was no less than 180 days. For the same compound, the R1 value (CYP3A4) was greater than 1.1, the R1 value (CYP2C9) was greater than 1.1 and the R1 value (CYP2D6) was greater than 1.1.

In the case of `NC(=O)c1cc(Oc2ccc(NC(=O)Nc3ccc(Cl)c(C(F)(F)F)c3)c(F)c2)cc[n+]1[O-]` [M-5, N-desmethyl-REG-N-oxide], the R1 value (CYP2C8) is listed as greater than 1.1, the “AUC0–t of metabolite, times higher during combined administration of OLA and REG” value ([1]; IREG+OLA vs. IIREG control) is listed as 17.83 fold and the “AUC0–∞ of metabolite, times higher during combined administration of OLA and REG” value ([1]; IREG+OLA vs. IIREG control) is listed as 18.82 fold. The “Cmax of metabolite, times higher during combined administration of OLA and REG” value ([1]; IREG+OLA vs. IIREG control) was 16.32 fold, the “AUC0–t” value [2] was 803.19 ± 177.02 (22.0) ng × h/mL and the “AUC0–∞” value [2] was 847.88 ± 178.97 (21.1) ng × h/mL. For the same compound, the “stable in plasma (long-term test)” value [3] was no less than 180 days.

In the case of `O=C(c1cc(Cc2n[nH]c(=O)c3ccccc23)ccc1F)N1CCN(C(=O)C2CC2)CC1` [OLA, Olaparib], the IC50 (BCRP) is listed as greater than 10000 nM, the “concentration in the gastrointestinal tract” value ([4]; from a 400 mg dose) is listed as 3683 µM and the “inhibitor class as perpetrator towards REG, from AUC ratio” value ([1]; rat model, AUC ratio 3.39) is listed as “moderate inhibitor”. For the same compound, the “stable in plasma (long-term test)” value [3] was “at least 181 days”, the “AUC0–t” value [5] was 28.28 ± 28.16 (99.6) µg × h/mL and the “AUC0–∞” value [5] was 28.58 ± 28.31 (99.1) µg × h/mL. For the same compound, the Cl/F [5] was 7.84 ± 15.21 (193.9) L/h, the Cmax [5] was 8.72 ± 6.80 (78.0) µg/mL and the t0.5 [5] was 4.79 ± 6.06 (126.5) h. The tmax [5] was 1.16 ± 0.92 (78.9) h, the “time-dependent CYP inhibition” value (CYP3A4/5; OLA 10 μM) was “little effect” and the “time-dependent CYP inhibition” value (CYP3A4/5; OLA 2–200 μM) was “time-dependent CYP3A4/5 inhibitor”. For the same compound, the IC50 (CYP3A4/5; reversible inhibition, OLA 17–500 μM) was 119000 nM, the “inhibition of atorvastatin transport” value (P-gp vesicles) was “weak inhibitor” and the “increase of AUC0–t of OLA after administration of OLA with REG” value ([6]; IREG+OLA vs. IIIOLA control) was 3.4 fold. The “increase of AUC0–t of OLA by REG” value ([6]; IREG+OLA vs. IIIOLA control) was 241.7%, the “increase of AUC0–∞ of OLA after administration of OLA with REG” value ([6]; IREG+OLA vs. IIIOLA control) was 3.4 fold and the “increase of AUC0–∞ of OLA by REG” value ([6]; IREG+OLA vs. IIIOLA control) was 240.6%. The “increase of Cmax of OLA after administration of OLA with REG” value ([6]; IREG+OLA vs. IIIOLA control) was 2.0 fold, the “increase of Cmax of OLA by REG” value ([6]; IREG+OLA vs. IIIOLA control) was 104.9% and the t0.5 ([6]; OLA, single oral OLA 100 mg/kg b.w. + REG 20 mg/kg b.w. (IREG+OLA, n = 8), mean ± SD) was 3.01 ± 0.86 (28.6) h. For the same compound, the “AUC0–∞ ratio of OLA (study group/control group)” value ([6]; rats, OLA victim, REG perpetrator) was 3.39 and 3.41 and the IC50 (P-gp) was greater than 10000 nM.

For `CNC(=O)c1cc(Oc2ccc(NC(=O)Nc3ccc(Cl)c(C(F)(F)F)c3)c(F)c2)ccn1` [REG, regorafenib], the R1 value (CYP2C19) is listed as greater than 1.1, the R1 value (CYP2C8) is listed as greater than 1.1 and the estimated duodenal concentration ([4]; 160 mg REG dose, assumed duodenal volume of 250 mL) is listed as 1.3 mM. The “increase of AUC0–∞ of REG after OLA administration” value ([1]; IREG+OLA vs. IIREG control) was 3.38 fold, the “increase of t0.5 of REG after OLA administration” value ([1]; IREG+OLA vs. IIREG control) was 1.82 fold and the “increase of tmax of REG after OLA administration” value ([1]; IREG+OLA vs. IIREG control) was 2.66 fold. For the same compound, the “reduction of kel of REG in the study group” value ([1]; IREG+OLA vs. IIREG control) was 1.77 fold, the t0.5 ([1]; REG, single oral REG 20 mg/kg b.w. + OLA 100 mg/kg b.w. (IREG+OLA, n = 8), mean ± SD) was 11.65 ± 3.70 (31.7) h and the Vd/F ([2]; REG) was 2062.53 ± 615.85 (29.7) mL. For the same compound, the tmax ([2]; REG) was 5.8 ± 2.1 (36.9) h, the “stable in plasma (long-term test)” value [3] was no less than 180 days and the R1 value (CYP3A4) was greater than 1.1. The IC50 (P-glycoprotein; in vitro, read-out: IC50) was roughly 2000 nM, the IC50 (P-glycoprotein; read-out: IC50 for P-gp inhibition) was 2200 nM and the R1 value (CYP2B6) was greater than 1.1. The R1 value (CYP2C9) was greater than 1.1, the Ki (CYP3A) was 20700 nM and the “predicted effect on the AUCs of apixaban and rivaroxaban” value [7] was “little or no effect”.

In the case of `CNC(=O)c1ccccc1Sc1ccc2c(/C=C/c3ccccn3)n[nH]c2c1` [axitinib], the “predicted AUC increase for (S)- and/or (R)-warfarin” value (shortened to “predicted AUC increase”) [7] is listed as no more than 1.2 fold.

For `OC(Cn1cncn1)(Cn1cncn1)c1ccc(F)cc1F` [fluconazole], the “increase in AUC of OLA” value ([8]; concomitant fluconazole) is listed as 121% and the “increase in Cmax of OLA” value ([8]; concomitant fluconazole) is listed as 14%.

In the case of `CCC(C)n1ncn(-c2ccc(N3CCN(c4ccc(OCC5COC(Cn6cncn6)(c6ccc(Cl)cc6Cl)O5)cc4)CC3)cc2)c1=O` (stereo not drawn) [itraconazole], the “increase in AUC of OLA” value ([8]; concomitant itraconazole) is given as 170% and the “increase in Cmax of OLA” value ([8]; concomitant itraconazole) is given as 42%.

In the case of `Cc1ccc(NC(=O)c2ccc(CN3CCN(C)CC3)cc2)cc1Nc1nc(-c2cccnc2)cs1` [masitinib], the Ki (CYP3A) is listed as 1300 nM.

For `CN(C)C(=N)N=C(N)N` [metformin], the “increase in metformin AUC” value [9] is given as 2.6 fold and the “increase in metformin Cmax” value [9] is given as 2.8 fold.

For `COC(=O)c1ccc2c(c1)NC(=O)/C2=C(\Nc1ccc(N(C)C(=O)CN2CCN(C)CC2)cc1)c1ccccc1` [nintedanib], the “predicted AUC increase” value [7] is given as no more than 1.2 fold.

In the case of `Cc1cc(Nc2cc(N3CCN(C)CC3)nc(Sc3ccc(NC(=O)C4CC4)cc3)n2)[nH]n1` [tozasertib], the “predicted AUC increase” value [7] is listed as no more than 1.2 fold.

For `CC(=O)Nc1cccc(-n2c(=O)n(C3CC3)c(=O)c3c(Nc4ccc(I)cc4F)n(C)c(=O)c(C)c32)c1` [trametinib], the “predicted AUC increase” value [7] is given as no more than 1.2 fold.

In the case of `Clc1ccc(Nc2nnc(Cc3ccncc3)c3ccccc23)cc1` [vatalanib], the Ki (CYP3A) is given as 200 nM.
